Measurements: patent US20220175675A1, “ENCAPSULATING MOLECULES IN FAT GLOBULES” (The Regents of the University of California, priority 2019, published 2022)

What was measured:
[1] = Encapsulation of hydrophobic compounds into milk fat globules (loading capacity, encapsulation efficiency); assay type: physicochemical, bovine; conditions: 10% v/v ethanol, 30 min
Method: Raw milk was procured from a local market and stored at 4° C. Milk was used for up to 4 days post purchase. MFGs were separated from raw milk using centrifugal separation following a modified version of the method by Gallier et al. (2010) (12). First, raw milk was diluted with Milli-Q water at 9:1 water to milk, and the solution was centrifuged at 3,000×g for 5 min using a fixed angle centrifuge rotor. Cream was then skimmed off the sides of the centrifuged tubes after discarding the aqueous phase. In order to remove more of the milk serum components, cream was reconstituted in water to reach 4% w/v, and subjected to another step of centrifugation at 3,000×g for 5 min Cream was collected as detailed prior, then reconstituted to 20% w/v in Milli-Q water. All separation steps were completed at room temperature.
Encapsulation of test compounds in MFGs was accomplished by mixing ethanolic stock solution of a compound with 20% w/v cream suspended in water. The mixture was gently inverted several times to mix, then allowed in incubate in the dark.
To test the effect of incubation temperature on the partitioning and encapsulation yield and efficiency, RA was added at 250 μM concentration and was allowed to incubate with MFGs for 30 min at 4, 22, and 40° C.
To quantify the amount of compound encapsulated in MFGs, cream was separated from ethanol-containing aqueous phase via centrifugal separation at 3,000 x g for 5 min. Cream was skimmed and added to methanol at 50 mg/mL and vortexed vigorously for 1 min, then centrifuged at 16,000×g for 10 min. Top layer of methanol was collected and absorbance was measured at appropriate wavelength for each compound. An absorbance blank was prepared following the same encapsulation and separation steps in the absence of compound. λmax in methanol (nm) for each compound is reported in Table 1.
Cream (20% w/v in Milli-Q water) that was separated following the steps in Example 2 was further separated via centrifugation at 3,000×g for 5 min. Fat content in cream was measured using a modified Folch method (13). An additional washing step was incorporated where the chloroform/water interface was washed with 1:1 water/methanol solution.

[2] = Loading of vitamin D3 in bovine milk fat globules; assay type: physicochemical; conditions: for EE %, 1% v/v ethanol / EE %, 10% v/v ethanol / LY, 1% v/v ethanol / LY, 10% v/v ethanol: Bovine MFGs, 30 minutes
Method: (§1) Raw milk was diluted with Milli-Q water at 9:1 water to milk. Cream was separated from diluted milk via centrifugation at 3,000×g for 5 min. Cream was collected and reconstituted in water at 4% w/v concentration. The mixture was then further centrifuged at 3,000×g for 5 min. The cream was then collected and reconstituted to desired weight/volume in water (20% w/v in water).
(§2) Encapsulation of VD3 was achieved by incubation of compound's ethanolic solution with 20% w/v cream suspended in water. Once well mixed by gently inverting the tube, the contents were allowed to incubate in the dark. […] Significant values were reported with a 95% confidence interval, i.e. p<0.05.
Incubation time was varied: 15, 30, 45, and 60 min. The effect of incubation time on the encapsulation of VD3 in bovine MFGs was assessed using a t-test with adjusted significance level using Bonferroni correction (p=0.008). These statistical analyses were carried out using Microsoft Excel 2010 (Microsoft Inc., Bellevue, WA, U.S.A.). All procedures were conducted with minimal exposure to light. The experiments were conducted in triplicates.
(§3) At the end of the incubation period with VD3, cream was separated by centrifuging the suspension at 3,000×g for 5 min Cream was skimmed off the top with particular care not to include any of the aqueous phase. Methanol was added at 50 mg/mL and vortexed vigorously for 1 min. The mixture was then centrifuged at 3,000×g for 30 min. Liquid phase was collected and absorbance was measured at 264 nm. Absorbance blank was prepared fresh during every encapsulation run by introducing ethanol to cream suspended in water. Absorbance of the blank was subtracted from test samples to remove the absorbance of solvent, lipids, and other MFGs components. All experiments were conducted in triplicates.
(§4) Fat content in cream was measured to calculate the loading yield. The fat was isolated using the same set of preparation steps detailed in Example 13 with the addition of the last centrifugation step to recover cream after at the end of the loading process. The total fat content was determined using a modified Folch method (Folch, Lees, & Sloane-Stanley, 1957) where an additional step of washing the chloroform/water interface with 1:1 water/methanol solution was added to remove milk serum components. The loading yield of VD3 in milk fat was calculated as follows: […]
(§5) where CE is the VD3 extracted from MFGs (μg), and MF is the mass of milk fat (g) in MFGs suspension. The extraction procedure was conducted in triplicates using independent milk samples.

[3] = Loading of vitamin D3 in ovine milk fat globules; assay type: physicochemical; conditions: for EE %, 1% v/v ethanol / EE %, 10% v/v ethanol / LY, 1% v/v ethanol / LY, 10% v/v ethanol: Ovine MFGs, 30 minutes
Method: as §1, §2, §3, §4, §5

From the text for physchem: One such molecular property that is used to predict partitioning potential is the octanol—water partition coefficient; Log P, which is the logarithm of the ratio of the solute concentration in the octanol phase to the solute concentration in the water phase, at a defined temperature.

In the case of `C=C1CC[C@H](O)C/C1=C/C=C1\CCC[C@]2(C)[C@@H]([C@H](C)CCCC(C)C)CC[C@@H]12` [Cholecalciferol], the “% Encapsulation efficiency” value ([1]; 50 μM added compound, room temperature) is reported as 68.60 ± 6.30%, the “% Encapsulation efficiency” value ([1]; 100 μM added compound, room temperature) is reported as 69.58 ± 6.44% and the “% Encapsulation efficiency” value ([1]; 150 μM added compound, room temperature) is reported as 67.62 ± 3.67%. The “% Encapsulation efficiency” value ([1]; 200 μM added compound, room temperature) was 63.59 ± 1.43%, the “% Encapsulation efficiency” value ([1]; 250 μM added compound, room temperature) was 49.84 ± 3.74 % and the “% Encapsulation efficiency” value ([1]; 500 μM added compound, room temperature) was 45.25 ± 3.00 %. For the same compound, the “% Encapsulation efficiency” value ([1]; 1000 μM added compound, room temperature) was 24.77 ± 0.84 %, the “% Encapsulation efficiency” value ([1]; 1500 μM added compound, room temperature) was 28.92 ± 3.43 % and the “% Encapsulation efficiency” value ([1]; 2000 μM added compound, room temperature) was 19.66 ± 1.05 %. For the same compound, the “% Encapsulation efficiency” value ([1]; 2500 μM added compound, room temperature) was 19.22 ± 2.88 %, the “maximal loading capacity (LC)” value ([1]; maximal value over 50-2500 μM, room temperature) was 22.12 μg per gram of milk fat and the “encapsulation efficiency (EE %), maximal/overall value” ([1]; over tested concentrations) was 69%. The “EE %, 1% v/v ethanol” value ([2]; 50 μM) was 20.81 ± 8.82%, the “EE %, 10% v/v ethanol” value ([2]; 50 μM) was 27.72 ± 7.94% and the “LY, 1% v/v ethanol” value ([2]; 50 μM) was 19.78 ± 8.38 μg of VD3 per gram of milk fat. The “LY, 10% v/v ethanol” value ([2]; 50 μM) was 26.34 ± 7.55 μg of VD3 per gram of milk fat, the “EE %, 1% v/v ethanol” value ([2]; 100 μM) was 18.45 ± 0.91% and the “EE %, 10% v/v ethanol” value ([2]; 100 μM) was 21.09 ± 1.10%. For the same compound, the “LY, 1% v/v ethanol” value ([2]; 100 μM) was 35.07 ± 1.73 μg of VD3 per gram of milk fat, the “LY, 10% v/v ethanol” value ([2]; 100 μM) was 40.09 ± 2.10 μg of VD3 per gram of milk fat and the “EE %, 1% v/v ethanol” value ([2]; 150 μM) was 15.43 ± 1.27%. For the same compound, the “EE %, 10% v/v ethanol” value ([2]; 150 μM) was 20.67 ± 1.97%, the “LY, 1% v/v ethanol” value ([2]; 150 μM) was 44.00 ± 3.63 μg of VD3 per gram of milk fat and the “LY, 10% v/v ethanol” value ([2]; 150 μM) was 58.93 ± 5.61^†¥ μg of VD3 per gram of milk fat. For the same compound, the “EE %, 1% v/v ethanol” value ([2]; 200 μM) was 12.31 ± 3.56%, the “EE %, 10% v/v ethanol” value ([2]; 200 μM) was 18.51 ± 1.52 % and the “LY, 1% v/v ethanol” value ([2]; 200 μM) was 46.78 ± 13.52 μg of VD3 per gram of milk fat. The “LY, 10% v/v ethanol” value ([2]; 200 μM) was 70.37 ± 5.79^†‡¥ μg of VD3 per gram of milk fat, the “EE %, 1% v/v ethanol” value ([2]; 250 μM) was 14.28 ± 1.89% and the “EE %, 10% v/v ethanol” value ([2]; 250 μM) was 16.85 ± 2.94 %. For the same compound, the “LY, 1% v/v ethanol” value ([2]; 250 μM) was 67.84 ± 9.00 μg of VD3 per gram of milk fat, the “LY, 10% v/v ethanol” value ([2]; 250 μM) was 80.07 ± 14.00 μg of VD3 per gram of milk fat and the “VD3 loaded into MFGs (up to)” value ([2]; bovine MFGs) was “Up to 80 μg/g milk fat”. For the same compound, the “reduction in the encapsulation yield with extended incubation” value ([2]; bovine MFGs, incubation up to 60 min vs 45 min, 10% v/v ethanol, 250 μM VD3) was “approx. 8%”, the “EE %, 1% v/v ethanol” value ([3]; 50 μM) was 11.75 ± 0.44% and the “EE %, 10% v/v ethanol” value ([3]; 50 μM) was 37.83 ± 10.36%. For the same compound, the “LY, 1% v/v ethanol” value ([3]; 50 μM) was 11.17 ± 0.41 μg of VD3 per gram of milk fat, the “LY, 10% v/v ethanol” value ([3]; 50 μM) was 35.95 ± 9.85 μg of VD3 per gram of milk fat and the “EE %, 1% v/v ethanol” value ([3]; 100 μM) was 10.70 ± 3.12%. The “EE %, 10% v/v ethanol” value ([3]; 100 μM) was 20.29 ± 4.85 %, the “LY, 1% v/v ethanol” value ([3]; 100 μM) was 20.35 ± 5.93 μg of VD3 per gram of milk fat and the “LY, 10% v/v ethanol” value ([3]; 100 μM) was 38.56 ± 9.23 μg of VD3 per gram of milk fat. The “EE %, 1% v/v ethanol” value ([3]; 150 μM) was 10.17 ± 0.67%, the “EE %, 10% v/v ethanol” value ([3]; 150 μM) was 18.95 ± 6.34 % and the “LY, 1% v/v ethanol” value ([3]; 150 μM) was 29.01 ± 1.92 μg of VD3 per gram of milk fat. For the same compound, the “LY, 10% v/v ethanol” value ([3]; 150 μM) was 54.03 ± 18.08 μg of VD3 per gram of milk fat, the “EE %, 1% v/v ethanol” value ([3]; 200 μM) was 8.49 ± 1.65% and the “EE %, 10% v/v ethanol” value ([3]; 200 μM) was 14.30 ± 3.90 %. For the same compound, the “LY, 1% v/v ethanol” value ([3]; 200 μM) was 32.28 ± 6.26 μg of VD3 per gram of milk fat, the “LY, 10% v/v ethanol” value ([3]; 200 μM) was 54.33 ± 14.83 μg of VD3 per gram of milk fat and the “EE %, 1% v/v ethanol” value ([3]; 250 μM) was 8.13 ± 1.27%. For the same compound, the “EE %, 10% v/v ethanol” value ([3]; 250 μM) was 10.31 ± 1.14 %, the “LY, 1% v/v ethanol” value ([3]; 250 μM) was 38.62 ± 6.06 μg of VD3 per gram of milk fat and the “LY, 10% v/v ethanol” value ([3]; 250 μM) was 49.00 ± 5.43 μg of VD3 per gram of milk fat. The “VD3 loaded into MFGs (up to)” value ([3]; ovine MFGs) was ≤ 54 μg/g milk fat and the logP (physchem) was ~7.5.
